Measured values from US9581586B2, “Approach to asthma inhaler compliance using breath measurement of tetrafluoroethane” (The Regents of the University of California, priority 2014, dated 2017).
Where two headings read alike, the source gives them in different places. Values belong to the compound of their own block, whether it stands above or below them.

Experiments:
[1] = Exhaled breath HFA-134a levels after asthma inhaler administration (GC with MSD); type: in vivo, human
Experimental: Study participants were randomly assigned to inhaled corticosteroid (ICS, Flovent HFA, 220 mcg, n=5) or short acting bronchodilator (Albuterol, Proventil HFA, n=5). Baseline exhaled breath sampling and standard lung function test were performed prior to the medication dispersion. After baseline measurements, the participants inhaled two puffs of either Flovent HFA (Glaxo Smith Kline) or Proventil HFA (Merck & CO., INC) using a spacer (AeroChamberPlus Flow-Vu, Monaghan). Breath sampling and lung function test were performed immediately after inhalation (<5 min), and at 2, 4, 6, 8, 24, and 48 hours post administration (see FIG. 3).
Exhaled breath samples were collected in evacuated electro-polished stainless steel canisters (volume=1.9 L). The analytic system used in this study is similar to the system described in Colman et al., 2001 (18). Briefly, 790 mL of the collected air sample is pre-concentrated in a stainless steel loop filled with glass beads and submerged in liquid nitrogen to remove the nitrogen, oxygen and argon present in the sample. The sample is re-vaporized using hot water (at approximately 80° C.) and split into five different column/detector combinations housed in three gas chromatographs (GCs) using UHP helium as the carrier gas: (1) DB-1 column (J&W; 60 m, 0.32 mm I.D., 1 μm film thickness) output to a flame ionization detector (FID); (2) DB-5 column (J&W; 30 m, 0.25 mm I.D., 1 vim film thickness) connected in series to a RESTEK 1701 column (5 m, 0.25 mm I.D., 0.5 μm film thickness) and output to an electron capture detector (ECD); (3) RESTEK 1701 column (60 m, 0.25 mm I.D., 0.50 μm film thickness) output to an ECD; (4) PLOT column (J&W GS-Alumina; 30 m, 0.53 mm I.D.) connected in series to a DB-1 column (J&W; 5 m, 0.53 mm I.D., 1.5 μm film thickness) and output to an FID; (5) DB-5 ms column (J&W; 60 m, 0.25 mm I.D., 0.5 μm film thickness) output to a quadrupole mass spectrometer detector (MSD, HP 5973). The MSD is set to operate in selected ion monitoring (SIM) mode with one ion chosen to quantify each compound in order to achieve the maximum selectivity and to avoid potential interferences. All gas chromatographs and detectors used in this study are manufactured by Hewlett Packard. The analytical system allows for the identification and quantification of different classes of volatile organic compounds (VOCs). […] Simultaneously, room air samples were also collected in the same location to quantify corresponding ambient levels of HFA-134a.

[2] = as above; type: in vivo, human; settings: n=1, Flovent HFA one puff per day for nine days, last ICS approximately 24 hr before sampling
[3] = 500 ppm of HFA-134a for two hours; cited from earlier work
[4] = Three compartment pharmacokinetic analysis of HFA elimination in breath after Flovent HFA; type: in vivo, human; settings: for half-life: human, exhaled breath, inhaled
Experimental: 24 hr, 36 hr, and 48 hr—post Flovent HFA administration (red and blue open circle). All sample collections were held open space. […] The calculated half-lives are 0.97, 20.7, and 442 minutes for subject #1 and 0.92, 27.6, and 355 minutes for subject #2.
As further disclosed in FIG. 5, the inventors re-defined the experiment and have performed a compartmental pharmacokinetic analysis of HFA elimination kinetics using HFA at 5 min, 7 min, 10 min, 15 min, 30 min, 1 hr, 2 hr, 3 hr, 4 hr, 6 hr, 8 hr, 12 hr. 24 hr, 36 hr, and 48 hr—post Flovent HFA administration. The HFA elimination could be modeled using three compartment pharmacokinetic analysis (Eq1). […] The elimination rate constant in each compartment, L1, L2, and L3, respectively are −0.1970, −0.0183, and −0.0013 for subject #1 and −0.1720, −0.0142, and −0.0018 for subject #2. The corresponding half-lives are 0.97, 20.7, and 442 minutes for subject #1 and 0.92, 27.6, and 355 minutes for subject #2.

[5] = in vivo; cited from earlier work
[6] = metabolite of HFA-134a, only in some urine samples at trace levels; cited from earlier work
[7] = Albuterol subject #3 (Proventil HFA)

Exhaled HFA-134a levels at the 2-hr time point ([1]; 2 hr post inhaler administration, range over subjects): 28000-266000 pptv | HFA concentration in breath at 48 hr post typical asthma inhaler administration ([1]; 48 hr post): still detectable | Breath HFA-134a 48 hr post medication [1, 7]: 224 pptv | Breath HFA-134a right after medication [1, 7]: 6.2 ppmv | Breath HFA-134a at 48 hour time point ([1]; ICS subject #3 (Flovent HFA)): 287 pptv | Breath HFA-134a right after drug administration ([1]; ICS subject #3 (Flovent HFA)): 179 ppmv | Breath HFA-134a at 48 hour time point ([1]; ICS subject #4 (Flovent HFA)): 351 pptv | Breath HFA-134a right after drug administration ([1]; ICS subject #4 (Flovent HFA)): 48 ppmv | Time HFA can be measured in exhaled breath after a typical single inhalation ([1]; down to parts-per-trillion levels): at least 48 hours | HFA-134a breath levels immediately after inhalation ([1]; healthy controls, Flovent HFA or Proventil HFA, immediately after inhalation): 300×10^6 pptv | Time HFA is detectable above ambient levels following an inhalation ([1]; healthy participants): up to 24 hours | Exhaled breath HFA-134a levels right after inhalation (range over subjects) ([1]; healthy participants, two puffs of asthma inhaler, right after inhalation): 3-300 ppmv | Mean (SD) levels of HFA-134a in exhaled breath at 48-hr post inhaler administration ([1]; seven of ten healthy participants, 48 hr post): 260 (138) pptv | Breath HFA-134a levels at 48 hours post inhaler administration ([1]; similar to room HFA-134a levels, also at baseline): approximately 200 pptv | Baseline breath HFA level of symptomatic asthma subject on ICS [2]: 710 ppt | half-life ([4]; subject #1, read-out: Half-life corresponding to L1): 0.97 min | half-life ([4]; subject #1, read-out: Half-life corresponding to L2): 20.7 min | half-life ([4]; subject #1, read-out: Half-life corresponding to L3): 442 min | half-life ([4]; subject #2, read-out: Half-life corresponding to L1): 0.92 min | half-life ([4]; subject #2, read-out: Half-life corresponding to L2): 27.6 min | half-life ([4]; subject #2, read-out: Half-life corresponding to L3): 355 min | Elimination rate constant L1 ([4]; subject #1, post Flovent HFA): −0.1970 reciprocal minutes | Elimination rate constant L2 ([4]; subject #1, post Flovent HFA): −0.0183 reciprocal minutes | Elimination rate constant L3 ([4]; subject #1, post Flovent HFA): −0.0013 reciprocal minutes | Elimination rate constant L1 ([4]; subject #2, post Flovent HFA): −0.1720 reciprocal minutes | Elimination rate constant L2 ([4]; subject #2, post Flovent HFA): −0.0142 reciprocal minutes | Elimination rate constant L3 ([4]; subject #2, post Flovent HFA): −0.0018 reciprocal minutes
Compound: FCC(F)(F)F [HFA-134a, 1,1,1,2-tetrafluoroethane]
Decrease of exhaled breath HFA-134a compared with HFA-134a in plasma when exposure stopped [3]: almost an order of magnitude faster | Exhaled breath HFA-134a the day after the exposure [3]: not-detectable | HFA-134a levels in blood samples [5]: below 10 % of the initially administered concentration

Compound: O=C(O)C(F)(F)F [trifluoroacetic acid]
Trifluoroacetic acid detected in urine samples [6]: less than 0.0005 % of the administered dose
